Experimental data from US9744186B2 (priority 2012, dated 2017).

What was measured:
[1] = TC50 MTS assay: PK9 cells; format: cell-based; conditions: human, 48 h drug treatment
Procedure: (§1) Plating Cells: The Huh7, HEPG2, HEK293, MCF-7, PK9, RPK9, or BxPC3 cells were passaged when they were about 70% confluent. The cells were counted using a hemocytometer, and then diluted cells to 0.5×10^5 cells per mL in DMEM+10% FBS. 100 µL of the cells (5,000 cells) were plated per well in a clear 96-well plate. The cells were allowed to attach for 24 hours at 37° C.
(§2) Treating the cells: Pre-warm the DMEM media without phenol red+2% FBS media to 37° C. […] This will bring the final DMSO concentration to 0.5%. Use these 0.5 mM dilutions to further serially the drugs in DMEM without phenol red+2% FBS+0.5% DMSO. This will keep the concentration of DMSO in each condition identical. Remove the 96-well plate from the 37° C. incubator. Replace the media on the plate with the dilutions of the drugs. Stagger these treatments by 1 h and write the treatment time on each set of plates. Return to 37° C. for 48 h or 96 h as indicated.
(§3) MTS Assay: The reagents from CellTiter 96 kit (Promega Corporation, Madison, Wis.) were thawed at room temperature in the dark for 1 h. The 96-well plate was removed from the 37° C. incubator at 48 h after drug treatment. […] The absorbance of each well at 490 nm and 650 nm was determined using the Flexstation 3 microplate reader in endpoint mode every hour for 3 h. The solutions in the wells were mixed prior to each reading. […]

HCV luciferase replicon [2] = assay: HCV luciferase replicon IC50 assay in Huh7 cells; conditions: Hepatitis C virus
Procedure: Plating Cells: The Luciferase replicon cell line was passaged when it was at about 70% confluency. The cells were counted by using a hemocytometer and diluted to 1×10^5 cells per mL in DMEM+10% FBS+[…] G415. The cells were plated as follows: 100 μL of the cells (10,000 cells) per well in a white-walled 96-well plate. The cells were allowed to attach for 24 hours at 37° C.
(§4) Treating the cells: Media (DMEM+2% FBS) was pre-warmed to 37° C. […] The 96-well plate was removed from the 37° C. incubator, and the media replaced on the plate with the serial dilutions of the test drug. The plate was then returned to 37° C. for 48 h.
Luciferase Assay: The Bright-Glo reagent (Promega Corporation, Madison, Wis.) was removed from the −80° C. freezer and allowed to thaw it at 4° C. in the dark. The amount of reagent necessary for the experiment (3.65 mL) was removed, and the remaining reagent was returned to −80° C. The Glo Lysis Buffer and the Bright Glow reagent were allowed to warm to room temperature for 30 min in the dark. The 96 well plate was removed from the incubator and the cells to allowed cool to room temperature for 30 min. The media was removed from the cells, and each well was gently washed in 100 μL of phosphate buffered saline (PBS). The PBS was removed and then 50 μL of the Glo Lysis Buffer was added to each well, followed by gently rocking the plate for 15 min at room temperature in the dark to ensure complete cell lysis. To each well of the 96-well plate was added 50 μL of the Bright Glo reagent and it was mixed well with the lysate. The plate was inserted into a GloMax 96 plate reader and allowed to sit for 5 min in the dark for the luciferase reaction to reach a steady state. The luminescence on the plate was read by using the pre-installed “Bright Glo” Promega program (Synergy Software) and the data were collected and saved. The data were fit to a 4 parameter logistic curve using Kaleidagraph using the following equation: 100/(1+(x/m3)^m4).
The data in Table 1 were determined for cells exposed to drug for 48 h. The IC50 is the concentration of each compound necessary to inhibit the replication of the HCV luciferase replicon to 50%.
That is, the cells were exposed to drug for 2 h at 37° C., followed by 46 h at 37° C. or incubated in the presence of drug for 48 h at 37° C.

HCV luciferase replicon [3] = assay: Isobologram analysis of synergism with other anti-viral compounds; format: cell-based, hepatitis C virus (HCV)
Procedure: Isobologram analysis was carried to assess the potential synergistic interaction of representative disclosed compounds with representative antiviral compounds. The isobolgram analysis was conducted as previously described by Chou and Talalay (see Chou T. C. and Talalay P. “Analysis of combined drug effects: a new look at a very old problem.” Trends Pharmacol Sci 1983; 4:450-4; and Chou T. C. and Talalay P. “Quantitative analysis of dose-effect relationships: the combined effects of multiple drugs or enzyme inhibitors.” Adv Enzyme Regul 1984; 22:27-55). The definitions of synergism are those described by Chou (see Chou, T. C. (2006) Theoretical basis, experimental design, and computerized simulation of synergism and antagonism in drug combination studies. Pharmacol Rev. 58(3):621-81).
Data for the isobologram analysis are shown in FIGS. 12-15, and shown in each figure are the test compound concentrations and corresponding combination index.

[4] = TC50 MTS assay with human cancer cell lines: BxPC3; format: cell-based; conditions: BxPC3 cells, 96 h drug treatment
Procedure: as §1, §2, §3

[5] = TC50 MTS assay: RPK9 cells (deficient in deoxycytidine kinase); format: cell-based; conditions: human, 48 h drug treatment, dCK-deficient cells
Procedure: as §1, §2, §3

[6] = TC50 MTS assay with human cancer cell lines: MCF-7; format: cell-based; conditions: MCF-7 cells, 96 h drug treatment
Procedure: as §1, §2
(§5) MTS Assay: The reagents from CellTiter 96 kit (Promega Corporation, Madison, Wis.) were thawed at room temperature in the dark for 1 h. The 96-well plate was removed from the 37° C. incubator at 48 h after drug treatment. 20 μL of the combined MTS/PMS reagent to each well of the plate, mixed, and the plate returned to 37° C. The absorbance of each well at 490 nm and 650 nm was determined using the Flexstation 3 microplate reader in endpoint mode every hour for 3 h. The solutions in the wells were mixed prior to each reading. Fit Data to the Emax model: y=(Emax*x)/(TC50+x), where Emax is the maximum inhibition and TC50 is the inhibitory dose 50%. Alternatively, fit the data to the Emax sigmoidal model: y=(Emax*x^slope)/(TC50^slope+x^slope), where slope is the Hill Slope.
(§6) Each TC50 was the average value of three measurements as described herein. […] The RPK9 cells are deficient in deoxycytidine kinase (“dCK”) activity, an enzyme required for the initial phosphorylation of dFdC to dFdCMP (see FIG. 2).

[7] = TC50 MTS assay with human cancer cell lines: HEK293; format: cell-based; conditions: HEK293 cells, 96 h drug treatment
Procedure: as §1, §2, §5, §6

[8] = TC50 MTS assay with human cancer cell lines: HEPG2; format: cell-based; conditions: HEPG2 cells, 96 h drug treatment
Procedure: as §1, §2, §5, §6

[9] = Compound solubility in media; format: physicochemical; conditions: DMEM+2% FBS cell culture media, 37 °C, plasma or biological fluid, kinetic from dmso stock; DMEM+2% FBS media
Procedure: as §4

hENT1 = assay: TC50 MTS assay with human cancer cell lines: Huh7; format: cell-based; conditions: human, Huh7 cells; 48 h drug treatment; 10 μM S-(4-nitrobenzyl)-6-thioinosine (hENT1 inhibitor) added; read-out: TC50 (μM) in Huh7 cells NBTI
Procedure: as §1, §2, §5, §6

[10] = TC50 MTS assay with human cancer cell lines: Huh7; format: cell-based; conditions: human, Huh7 cells; 96 h drug treatment
Procedure: as §1, §2, §5, §6

HCV luciferase replicon [11] = assay: Reversal of anti-HCV activity by exogenous nucleosides; format: cell-based, hepatitis C virus (HCV); conditions: drug 1000, 100 or 25 nM; 50 μM cytidine or 2′-deoxycitidine; 48 h
Procedure: After 48 hours, the cells were lysed, and the total luciferase activity was determined. […] Where indicated, either 50 μM cytidine (C) or 50 μM 2′-deoxycitidine (dC) was also included.
The cells were plated, incubated with drug, and luciferase activity assayed essentially as described herein above. The incubation with drug was for 48 h.

`Nc1ccn([C@@H]2O[C@H](CO)[C@@H](O)C2(F)F)c(=O)n1` [gemcitabine, 4-amino-1-((2R,4R,5R)-3,3-difluoro-4-hydroxy-5-(hydroxymethyl)tetrahydrofuran-2-yl)pyrimidin-2(1H)-one, reference compound] gave a CC50 at 48 h [1] of 0.095 ± 0.035 µM, an IC50 (HCV luciferase replicon [2]; Huh-7, 48 h, cells incubated with drug continuously for 48 h (Table 5)) of 58.4 ± 6.1 nM and an IC50 (HCV luciferase replicon [2]; Huh-7, cells incubated with drug for 2 h, followed by 46 h without drug) of 170 ± 33 nM. For the same molecule, the “Interaction Type with PSI-6130” value (HCV luciferase replicon [3]; Compound 2 = PSI-6130) was “synergism”, the “Interaction Type with PSI-7977” value (HCV luciferase replicon [3]; Compound 2 = PSI-7977) was “slight synergism” and the CC50 at 96 h [4] was 2.9 ± 0.3 nM. The CC50 at 48 h [5] was over 500 µM, the CC50 at 96 h [6] was 67 ± 14 nM and the CC50 at 96 h [7] was 560 ± 130 nM. It also gave a CC50 at 96 h [8] of 311 ± 55 nM, a solubility [9] of over 500 µM and a CC50 at 48 h (hENT1) of over 500 µM. The CC50 at 96 h [10] was 3410 ± 1360 nM and the “reversal of the inhibition of the HCV luciferase replicon by deoxycytidine and cytidine” value (HCV luciferase replicon [11]) was “reversal”.
